Here are results for five molecules from patent US6703540B1, “Transformation of plants with a chloroperoxidase gene to enhance disease resistance” (The United States of America as represented by the …, priority 2000, dated 2004).

Assay [1] has as its system Aspergillus flavus. Kind of assay: Comparative lethalities of oxidants to Aspergillus flavus. Type of assay: cell-based. The conditions noted are these: mM concentrations of oxidants that produce 50% killing of Aspergillus flavus.
A further assay relates to endogenous peroxidase. Kind of assay: Endogenous peroxidase activity in leaf extracts assayed with guaiacol. Type of assay: biochemical, Nicotiana tabacum. The conditions noted are these: guaiacol assay. An excerpt: The validity of the assay procedure for CPO-P activity in transgenic tobacco was established in the following manner.
Assay [2] relates to Aspergillus flavus. The conditions noted are these: H2O2 converted to hypochlorite by myeloperoxidase, in vitro; cited from earlier work.

Regarding `OCl` [HOCl, hypochlorous acid], in the assay with Aspergillus flavus [1], the LD50 is 0.30 mM.
On the same count and under the same terms, to `CC(=O)OO` [HOOAc, peracetic acid] belongs 0.15 mM.
Take `[N-]=[N+]=[N-].[Na+]` [NaN3]: in the assay on endogenous peroxidase, the “inhibition of endogenous peroxidase activity in leaf extracts (in words)” value is recorded as “completely inhibited”.
As to `OO` [Plant H2O2, hydrogen peroxide], in the assay on Aspergillus flavus [1], the LD50 is 18.00 mM.

B1: myeloperoxidase: animal haloperoxidase converting hydrogen peroxide to hypochlorous acid (protein, UniProt P05164 165-745, looked up)
Myeloperoxidase: VTCPEQDKYRTITGMCNNRRSPTLGASNRAFVRWLPAEYEDGFSLPYGWTPGVKRNGFPVALARAVSNEIVRFPTDQLTPDQERSLMFMQWGQLLDHDLDFTPEPAARASFVTGVNCETSCVQQPPCFPLKIPPNDPRIKNQADCIPFFRSCPACPGSNITIRNQINALTSFVDASMVYGSEEPLARNLRNMSNQLGLLAVNQRFQDNGRALLPFDNLHDDPCLLTNRSARIPCFLAGDTRSSEMPELTSMHTLLLREHNRLATELKSLNPRWDGERLYQEARKIVGAMVQIITYRDYLPLVLGPTAMRKYLPTYRSYNDSVDPRIANVFTNAFRYGHTLIQPFMFRLDNRYQPMEPNPRVPLSRVFFASWRVVLEGGIDPILRGLMATPAKLNRQNQIAVDEIRERLFEQVMRIGLDLPALNMQRSRDHGLPGYNAWRRFCGLPQPETVGQLGTVLRNLKLARKLMEQYGTPNNIDIWMGGVSEPLKRKGRVGPLLACIIGTQFRKLRDGDRFWWENEGVFSMQQRQALAQISLPRIICDNTGITTVSKNNIFMSNSYPRDFVNCSTLPALNLASWREAS
B1: the “increase in lethality against Aspergillus flavus” value in the assay on Aspergillus flavus [2] is listed as no more than 90 fold.
